For test [1], the target named is T1, Bfl-1 (Homo sapiens, UniProt Q16548).
T1 construct: myc- Bfl-1 SPOT array & FP; made in house
T1 sequence (Q16548 with tags, fused parts or gaps): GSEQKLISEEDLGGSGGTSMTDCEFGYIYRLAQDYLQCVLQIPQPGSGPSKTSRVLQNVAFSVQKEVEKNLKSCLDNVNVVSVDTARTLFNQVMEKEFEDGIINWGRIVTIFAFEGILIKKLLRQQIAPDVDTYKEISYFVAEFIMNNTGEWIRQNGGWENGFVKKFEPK
The test can be described thus: Peptide SPOT array binding. Here is the method: (§1) Peptide SPOT arrays were synthesized using F-moc chemistry on nitrocellulose membranes at the MIT Biopolymers facility using an Intavis AutoSpot robot. Peptide spots were cut from the membrane, hydrated in 100% methanol, transferred to TBS (50 mM Tris, pH 8.1, 100 mM NaCl, 0.01% Triton X-100) with 1% bovine serum albumin (BSA), here called blocking buffer, and incubated at room temperature for ∼10 minutes. Membranes were then incubated with 10 ml of 1 µM or 100 nM c-Myc-tagged receptor (sequences in Table S6) in TBS for 1 h at room temperature. Membranes were then rinsed 3× with blocking buffer and then incubated with anti-c-myc-Cy3 antibody (Sigma Aldrich C6594) diluted 100-fold in blocking buffer for 1 hour at room temperature. Membranes were rinsed 3× with blocking buffer and scanned on a Typhoon 9400 (GE Healthcare). Images were analyzed with ImageQuant (GE Healthcare), and Cy3 intensity at 580 nm was averaged over a circular area that was equal in size for all spots for a given membrane. Typically, 5–10 known binders and their negative controls were included.

The target of test [2] is T2, Mcl-1 (Homo sapiens, UniProt Q07820).
T2 construct: myc-Mcl-1 SPOT array & FP; made in house
Kind of test: Peptide SPOT array binding. On the procedure:
as §1

Test [3] concerns the target T3, Bcl-xL (Homo sapiens, UniProt Q07817).
T3 construct: myc-Bcl-xL SPOT array & FP; made in house
The test can be described thus: Peptide SPOT array binding. The settings on record: c-Myc-tagged receptor 1 µM or 100 nM, anti-c-myc-Cy3 read-out. On the procedure:
as §1

Test [4] addresses T4, Bcl-2 (Homo sapiens, UniProt P10415, DEL53-91).
T4 construct: myc- Bcl-2 FP; made in house
Kind of test: Peptide SPOT array binding. Conditions: c-Myc-tagged receptor 1 µM or 100 nM, anti-c-myc-Cy3 read-out. On the procedure: as §1

Test [5] concerns the target T5, Bcl-w (Homo sapiens, UniProt Q92843, Q133R).
T5 construct: myc-Bcl-w SPOT array & FP; made in house
T5 sequence (Q92843 with tags, fused parts or gaps Q133R): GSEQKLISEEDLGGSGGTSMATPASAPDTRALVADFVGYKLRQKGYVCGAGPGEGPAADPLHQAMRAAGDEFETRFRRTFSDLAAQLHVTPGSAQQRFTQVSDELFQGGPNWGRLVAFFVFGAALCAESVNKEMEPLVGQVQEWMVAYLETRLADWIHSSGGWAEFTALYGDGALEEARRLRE
The test can be described thus: Peptide SPOT array binding. Conditions: c-Myc-tagged receptor 1 µM or 100 nM, anti-c-myc-Cy3 read-out. Here is the method:
as §1

The target in test [6] is T5, Bcl-w. Conditions: natural BH3 peptides, interactions taken from literature; read-out: Binder class, Bcl-w; cited from earlier work.
Test [7] deals with T4, Bcl-2. Conditions: natural BH3 peptides, interactions taken from literature; read-out: Binder class, Bcl-2; cited from earlier work.
Test [8] deals with T3, Bcl-xL. Conditions: cited from earlier work.
Test [9] has as its target T1, Bfl-1. Conditions: natural BH3 peptides, interactions taken from literature; read-out: Binder class, Bfl-1; cited from earlier work.
Test [10] has as its target T2, Mcl-1. Conditions: read-out: Binder class, Mcl-1, cited from earlier work. An excerpt: Negative control mutatio ...
Test [11] relates to prosurvival proteins Bcl-xL, Bcl-w, Bcl-2, Mcl-1 and Bfl-1. The test can be described thus: Peptide SPOT array binding, receptor not specified. Details: species or system human. Conditions: for Reduction in SPOT array signal when control mutations were introduced: 3aD and 3eL negative controls, receptor not specified; for SPOT array binding specificity among five prosurvival proteins: array IV. On the procedure: as §1

Where [12] appears, read: c-Myc-tagged receptor 1 µM or 100 nM, anti-c-myc-Cy3 read-out.
[13] abbreviates: natural BH3 peptides, interactions taken from literature.
The mark [14] stands for this setting: S1 Bim variants, specific binding measured using yeast display, ref Dutta et al. (2010).

Like-named read-outs stand apart in the source and are kept apart here.

T3 sequence (Q07817 with tags, fused parts or gaps): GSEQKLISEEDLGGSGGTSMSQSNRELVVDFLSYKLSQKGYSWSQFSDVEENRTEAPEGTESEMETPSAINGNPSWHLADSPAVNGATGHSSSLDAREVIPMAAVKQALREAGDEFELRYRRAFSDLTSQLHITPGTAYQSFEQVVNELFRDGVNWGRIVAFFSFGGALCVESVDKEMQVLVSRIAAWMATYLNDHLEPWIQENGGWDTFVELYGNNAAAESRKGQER
T2 sequence (Q07820 with tags, fused parts or gaps): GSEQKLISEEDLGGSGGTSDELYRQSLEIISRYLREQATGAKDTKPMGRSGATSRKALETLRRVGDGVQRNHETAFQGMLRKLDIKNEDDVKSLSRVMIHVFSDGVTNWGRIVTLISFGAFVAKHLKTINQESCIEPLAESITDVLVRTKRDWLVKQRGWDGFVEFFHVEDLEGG
T4 sequence (P10415 with tags, fused parts or gaps DEL53-91): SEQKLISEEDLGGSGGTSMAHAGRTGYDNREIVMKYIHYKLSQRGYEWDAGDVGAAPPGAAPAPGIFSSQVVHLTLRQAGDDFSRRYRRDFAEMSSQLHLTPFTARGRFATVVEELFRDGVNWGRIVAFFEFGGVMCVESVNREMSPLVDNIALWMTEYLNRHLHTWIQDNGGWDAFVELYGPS

Consider AAQRYGRELRRMSDEFVDSFKKG [Bad], for which the “Reduction in SPOT array signal for at least one of the negative controls, Bfl-1” value on Bfl-1 [1] (3aD / 3eL mutations) is recorded as “less than 25%”. Besides, the “Reduction in SPOT array signal for at least one of the negative controls, Mcl-1” value at Mcl-1 [2] (3aD / 3eL mutations) is listed as “less than 25%”.
As to “APOL6: peptide from APOL6, putative BH3 motif (KEDLKGNIDKLRALADDIDKTHKKFT)”, in the test with Bcl-xL [3], the “SPOT array signal as % of the Bim BH3 signal, Bcl-xL” value was 17%.
As for EGEKEVEALKKSADWVSDWSSRP [BNIP3L], the “SPOT array signal as % of the Bim BH3 signal, Bcl-xL” value on Bcl-xL [3] was “less than 3%”. Moreover, the “SPOT array signal as % of the Bim BH3 signal, Bcl-2” value at Bcl-2 [4] is recorded as “less than 3%”. Besides, the “SPOT array signal as % of the Bim BH3 signal, Bcl-w” value on Bcl-w [5] is “less than 3%”. Also, on Bfl-1 [1] (setting [12]), the “SPOT array signal as % of the Bim BH3 signal, Bfl-1” value is given as 8%. For the same substance, the “SPOT array signal as % of the Bim BH3 signal, Mcl-1” value on Mcl-1 [2] (setting [12]) is recorded as “less than 3%”.
Turning to IIRNIARHAAQVGASMDRSIPPG [Bid (X)], the Kd is below 1000 nM on Bcl-w [6], below 1000 nM at Bcl-2 [7], above 10000 nM at Bfl-1 [9] and below 1000 nM on Mcl-1 [10] (setting [13]). Moreover, the Binder class (Kd bin) at Bcl-xL [8] (setting [13]) is above 10000 nM.
As for MTQEVGQLLQDMGDDVYQQYRSL [Mule], in test [11], the “Reduction in SPOT array signal when control mutations were introduced” value is recorded as “more than 30%” and the “SPOT array binding specificity among five prosurvival proteins” value is reported as “binding specifically to Mcl-1”.
On to PEIWYAQEIGRYGDEFNAYYARR, for which the Binder class (Kd bin) at Bcl-xL [8] (setting [14]) is below 1000 nM. Besides, on Mcl-1 [10] (setting [14]), the Kd is above 10000 nM.
As to PEIWYAQEINRIGDEVNAYYARR, the Binder class (Kd bin) on Bcl-xL [8] (setting [14]) is above 10000 nM. In addition, the Kd at Mcl-1 [10] (setting [14]) was below 1000 nM.
Take PEIWYAQEIQRYGDEFNAYYARR: on Bcl-xL [8] (setting [14]), the Binder class (Kd bin) was below 1000 nM. Moreover, the Kd at Mcl-1 [10] (setting [14]) is above 10000 nM.
PEIWYAQEIRRAGDEFNAYYARR: the Binder class (Kd bin) on Bcl-xL [8] (setting [14]) is below 1000 nM. Moreover, the Kd at Mcl-1 [10] (setting [14]) is above 10000 nM.
On to PEIWYAQEIRRFGDEFNAYYARR, for which the Binder class (Kd bin) at Bcl-xL [8] (setting [14]) is below 1000 nM. For the same substance, at Mcl-1 [10] (setting [14]), the Kd is above 10000 nM.
PEIWYAQELERIGDEVNAYYARR: at Bcl-xL [8] (setting [14]), the Binder class (Kd bin) was above 10000 nM. Besides, the Kd on Mcl-1 [10] (setting [14]) was below 1000 nM.
Consider PEIWYAQELGRAGDEFNAYYARR, for which, at Bcl-xL [8] (setting [14]), the Binder class (Kd bin) was below 1000 nM. On Mcl-1 [10] (setting [14]), the Kd was above 10000 nM.
As to PEIWYAQELGRNGDEYNAYYARR, the Binder class (Kd bin) at Bcl-xL [8] (setting [14]) was below 1000 nM. Moreover, on Mcl-1 [10] (setting [14]), the Kd is above 10000 nM.
As to PEIWYAQELGRYGDEYNAYYARR, on Bcl-xL [8] (setting [14]), the Binder class (Kd bin) was below 1000 nM. In addition, the Kd at Mcl-1 [10] (setting [14]) is above 10000 nM.
On to PEIWYAQELKRDGDEFNAYYARR, for which the Binder class (Kd bin) at Bcl-xL [8] (setting [14]) was below 1000 nM. For the same substance, on Mcl-1 [10] (setting [14]), the Kd was above 10000 nM.
For the substance PEIWYAQELKRFGDENNAYYARR, the Binder class (Kd bin) on Bcl-xL [8] (setting [14]) was below 1000 nM. On Mcl-1 [10] (setting [14]), the Kd was above 10000 nM.
As for PEIWYAQELKRYGDENNAYYARR, the Binder class (Kd bin) on Bcl-xL [8] (setting [14]) was below 1000 nM. In addition, the Kd at Mcl-1 [10] (setting [14]) was above 10000 nM.
For PEIWYAQELQRNGDEFNAYYARR, the Binder class (Kd bin) at Bcl-xL [8] (setting [14]) is below 1000 nM. Also, the Kd on Mcl-1 [10] (setting [14]) is above 10000 nM.
On to PEIWYAQELRRDGDEYNAYYARR, for which the Binder class (Kd bin) at Bcl-xL [8] (setting [14]) is below 1000 nM. Further, the Kd at Mcl-1 [10] (setting [14]) was above 10000 nM.
Turning to PEIWYAQELRRNGDEYNAYYARR, the Binder class (Kd bin) on Bcl-xL [8] (setting [14]) is below 1000 nM. For the same substance, the Kd on Mcl-1 [10] (setting [14]) is above 10000 nM.
On to PEIWYAQEVKRYGDEYNAYYARR, for which the Binder class (Kd bin) at Bcl-xL [8] (setting [14]) is below 1000 nM. Besides, the Kd on Mcl-1 [10] (setting [14]) was above 10000 nM.
Consider PEIWYAQEVQRIGDEVNAYYARR, for which, at Bcl-xL [8] (setting [14]), the Binder class (Kd bin) is above 10000 nM. For the same substance, the Kd on Mcl-1 [10] (setting [14]) was below 1000 nM.
With RLAEVCAVLLRLGDELEMIRPSV [Bok], in test [11], the “Reduction in SPOT array signal when control mutations were introduced” value is listed as “more than 30%” and the “SPOT array binding specificity among five prosurvival proteins” value is given as “binding specifically to Mcl-1”.
